{
  "source": "patent US10363299B2",
  "about": "“Compositions and methods for preventing and treating rhinovirus infections” (priority 2015, dated 2019)",
  "assay_type_in_all_cases": "cell-based, human",
  "key": {"CD4+ T cells": {"system": "CD4+ T cells", "experiment": "Tetramer-guided epitope mapping (TGEM): pMHCII tetramer staining of PBMC cultures stimulated with RV peptides", "conditions": "one value per subject", "source_text": "(§1) Peptide libraries consisting of 20mers with a 12 amino acid overlap were generated to span the VP1, VP2 and VP4 protein sequences of RV-A16, and VP1 and VP2 protein sequences of RV-A39 (UniprotKB accession # Q82122, Q5XLP5). […] Biologically relevant pMHCII complexes were identified by tetramer-guided epitope mapping (TGEM). This involved 2 steps: First, PBMC cultures established from subjects with known HLA-DR types were stimulated with RV peptide pools derived from VP1, VP2, or VP4, and then stained with pMHCII tetramer pools composed of HLA-DR molecules corresponding to those expressed in the test subject; Second, positive signals were de-convoluted by repeating and staining with single-peptide tetramers. Tetramers that gave strong positive signals (˜1% of total CD4+ T cells) in the single peptide-tetramer screen in more than one subject, were then re-tested for their ability to detect RV-specific CD4+ T cells in non-stimulated PBMCs (denoted as ex vivo analysis) in multiple subjects.\n(§2) All experiments were performed in subjects expressing HLA-DR molecules corresponding to the selected tetramer. Precursor frequencies of circulating tetramer+ cells were then calculated by established methods. Tetramer+ cells were phenotyped for surface markers by staining PBMCs with PE-conjugated tetramers, labeling with anti-PE magnetic beads, enriching with an AutoMACS separator (Miltenyi Biotec, Auburn, Calif., USA), and then counterstaining for surface markers. A tetramer displaying an irrelevant peptide, GAD555-567, was used as a staining control. For simplicity, identified RV-A16 peptide epitopes were given a numerical designation."}, "RV-specific CD4+ T cells [1]": {"system": "RV-specific CD4+ T cells", "experiment": "Direct ex vivo pMHCII tetramer staining of non-stimulated PBMCs", "design": "key to Validated: Y means validated", "conditions": "for Ex Vivo Frequency (# per 10^6 CD4): directly ex vivo, without culture, one value per subject", "source_text": "as §1, §2"}, "RV-specific CD4+ T cells [2]": {"system": "RV-specific CD4+ T cells", "experiment": "Assay to assess T-cell cross-reactivity (14-day peptide stimulation of PBMCs, tetramer and cytokine staining)", "conditions": "PBMCs from HLA-DR*0401+ subjects stimulated 14 days", "experimental": "RV-specific CD4+ T cells were expanded in vitro using established methods. Briefly, PBMCs from HLA-DRB 1*0401+ subjects were stimulated with RV-A39 VP2169-188, or else unstimulated, for 14 days. Supplemental IL-2 (10 U/ml) was given days 7-14. Cells were then stained with RV tetramers and re-stimulated with PMA and ionomycin in the presence of Brefeldin A before staining for intracellular cytokines. Cells were analyzed on a BD LSR Fortessa (UVA Flow Cytometry Core Facility) and data analysis was performed using FlowJo version 9.3.3 (Tree Star Inc., Ashland, Oreg.). Analysis and presentation of distributions was performed using SPICE version 5.3, downloaded from a National Institutes of Health website."}, "[3]": {"conditions": "HLA allele 1*0101 tetramer, tetramer-positive CD4+ T cells in peptide-stimulated PBMC cultures"}, "[4]": {"conditions": "HLA allele DRB5 tetramer, peptide-stimulated PBMC cultures"}, "[5]": {"conditions": "HLA allele 1*0101 tetramer, reliable ex vivo signal (tetramer+ cells ≥2 per million CD4+ T cells in ≥3 subjects)"}, "[6]": {"conditions": "HLA allele 1*0701 tetramer, peptide-stimulated PBMC cultures"}, "[7]": {"conditions": "HLA allele 1*1501 tetramer, peptide-stimulated PBMC cultures"}, "[8]": {"conditions": "HLA allele 1*0701 tetramer, reliable ex vivo signal"}, "[9]": {"conditions": "HLA allele 1*1101 tetramer, peptide-stimulated PBMC cultures"}, "[10]": {"conditions": "HLA allele 1*0401 tetramer, peptide-stimulated PBMC cultures"}, "[11]": {"conditions": "HLA allele DRB5 tetramer, reliable ex vivo signal"}, "[12]": {"conditions": "HLA allele 1*0404 tetramer, peptide-stimulated PBMC cultures"}},
  "note": "Several values for one entry are separate records, joined by “and”; a condition that tells them apart may be missing. Identical values can stand only once.",
  "data": [
    {"sequence": "PHQFINLRSNNSATLIVPYV [VP2P24]", "values": [
      {"measurement": "In Vitro Frequency (% CD4)", "setting": "CD4+ T cells; [3]", "result": "2.82 % CD4 and 3.17 % CD4 and 11.3 % CD4"},
      {"measurement": "In Vitro Frequency (% CD4)", "setting": "CD4+ T cells; [4]", "result": "0 % CD4 (2×) and 0.67 % CD4"},
      {"measurement": "Ex Vivo Frequency (# per 10^6 CD4)", "setting": "RV-specific CD4+ T cells [1]; HLA allele 1*0101 tetramer", "result": "17 # per 10^6 CD4 and 148 # per 10^6 CD4 and 26 # per 10^6 CD4"},
      {"measurement": "Validated", "setting": "RV-specific CD4+ T cells [1]; [5]", "result": "Y"}
    ]},
    {"sequence": "PRFSLPFLSIASAYYMFYDG [VP1P23]", "values": [
      {"measurement": "In Vitro Frequency (% CD4)", "setting": "CD4+ T cells; [3]", "result": "8.37 % CD4 and 0.35 % CD4 and 2.37 % CD4"},
      {"measurement": "In Vitro Frequency (% CD4)", "setting": "CD4+ T cells; [6]", "result": "1.84 % CD4 and 0.74 % CD4"},
      {"measurement": "In Vitro Frequency (% CD4)", "setting": "CD4+ T cells; [7]", "result": "0.28 % CD4 and 0.78 % CD4 and 0 % CD4"},
      {"measurement": "In Vitro Frequency (% CD4)", "setting": "CD4+ T cells; [4]", "result": "2.03 % CD4 and 2.90 % CD4"},
      {"measurement": "Ex Vivo Frequency (# per 10^6 CD4)", "setting": "RV-specific CD4+ T cells [1]; HLA allele 1*0101 tetramer", "result": "3 # per 10^6 CD4 and 8 # per 10^6 CD4 and 13 # per 10^6 CD4 and 2 # per 10^6 CD4"},
      {"measurement": "Validated", "setting": "RV-specific CD4+ T cells [1]; [5]", "result": "Y"},
      {"measurement": "Ex Vivo Frequency (# per 10^6 CD4)", "setting": "RV-specific CD4+ T cells [1]; HLA allele 1*0701 tetramer", "result": "3 # per 10^6 CD4 and 8 # per 10^6 CD4 and 13 # per 10^6 CD4 and 2 # per 10^6 CD4"},
      {"measurement": "Validated", "setting": "RV-specific CD4+ T cells [1]; [8]", "result": "Y"},
      {"measurement": "Ex Vivo Frequency (# per 10^6 CD4)", "setting": "RV-specific CD4+ T cells [1]; HLA allele DRB5 tetramer", "result": "11 # per 10^6 CD4"}
    ]},
    {"sequence": "PSVEACGYSDRIIQITRGDS [VP2P1]", "values": [
      {"measurement": "In Vitro Frequency (% CD4)", "setting": "CD4+ T cells; [9]", "result": "1.59 % CD4 and 1.16 % CD4 and 0.66 % CD4"}
    ]},
    {"sequence": "QIRRKFEMFTYARFDSEITM [VP1P14]", "values": [
      {"measurement": "In Vitro Frequency (% CD4)", "setting": "CD4+ T cells; [10]", "result": "0.59 % CD4 and 0.96 % CD4"},
      {"measurement": "Ex Vivo Frequency (# per 10^6 CD4)", "setting": "RV-specific CD4+ T cells [1]; HLA allele 1*0401 tetramer", "result": "4 # per 10^6 CD4"}
    ]},
    {"sequence": "QSGTNASVFWQHGQPFPRFS [VP1P21]", "values": [
      {"measurement": "In Vitro Frequency (% CD4)", "setting": "CD4+ T cells; [4]", "result": "3.91 % CD4 and 0.95 % CD4"},
      {"measurement": "Ex Vivo Frequency (# per 10^6 CD4)", "setting": "RV-specific CD4+ T cells [1]; HLA allele DRB5 tetramer", "result": "11 # per 10^6 CD4 and 28 # per 10^6 CD4 and 20 # per 10^6 CD4"},
      {"measurement": "Validated", "setting": "RV-specific CD4+ T cells [1]; [11]", "result": "Y"}
    ]},
    {"sequence": "RGDSTITSQDVANAVVGYGV [VP2P3]", "values": [
      {"measurement": "In Vitro Frequency (% CD4)", "setting": "CD4+ T cells; [12]", "result": "6.86 % CD4 and 1.61 % CD4"},
      {"measurement": "Ex Vivo Frequency (# per 10^6 CD4)", "setting": "RV-specific CD4+ T cells [1]; HLA allele 1*0404 tetramer", "result": "36 # per 10^6 CD4 and 1 # per 10^6 CD4 and 38 # per 10^6 CD4 and 5 # per 10^6 CD4"},
      {"measurement": "Validated", "setting": "RV-specific CD4+ T cells [1]; HLA allele 1*0404 tetramer, reliable ex vivo signal", "result": "Y"}
    ]},
    {"sequence": "RPPRAVQYSHTHTTNYKLSS [VP1P32]", "values": [
      {"measurement": "In Vitro Frequency (% CD4)", "setting": "CD4+ T cells; [6]", "result": "0.53 % CD4 and 0 % CD4"}
    ]},
    {"sequence": "SDDNWLNFDGTLLGNLLIFP [RV-A39 VP2169-188]", "values": [
      {"measurement": "cytokine profile of expanded RV-specific T cells", "setting": "RV-specific CD4+ T cells [2]; PMA/ionomycin re-stimulation", "result": "a major IFN-γ+IL-4neg population, and minor populations expressing IL-17A and IL-21"},
      {"measurement": "expansion of tetramer-positive RV-specific CD4+ T cells after peptide stimulation", "setting": "RV-specific CD4+ T cells [2]; RV-A16 and RV-A39 VP2 tetramers", "result": "induced expansion of both RV-A16- and RV-A39-specific T-cells"}
    ]},
    {"sequence": "SDRIIQITRGDSTITSQDVA [VP2P2]", "values": [
      {"measurement": "In Vitro Frequency (% CD4)", "setting": "CD4+ T cells; [9]", "result": "2.18 % CD4 and 1.22 % CD4 and 2.28 % CD4"},
      {"measurement": "Ex Vivo Frequency (# per 10^6 CD4)", "setting": "RV-specific CD4+ T cells [1]; HLA allele 1*1101 tetramer", "result": "8 # per 10^6 CD4 and 11 # per 10^6 CD4 and 15 # per 10^6 CD4"},
      {"measurement": "Validated", "setting": "RV-specific CD4+ T cells [1]; HLA allele 1*1101 tetramer, reliable ex vivo signal", "result": "Y"}
    ]},
    {"sequence": "SIASAYYMFYDGYDGDTYKS [VP1P24]", "values": [
      {"measurement": "In Vitro Frequency (% CD4)", "setting": "CD4+ T cells; [7]", "result": "0.31 % CD4 and 0 % CD4 (2×)"}
    ]},
    {"sequence": "SNNSATLIVPYVNAVPMDSM [VP2P25]", "values": [
      {"measurement": "In Vitro Frequency (% CD4)", "setting": "CD4+ T cells; [10]", "result": "0 % CD4 and 0.46 % CD4"},
      {"measurement": "In Vitro Frequency (% CD4)", "setting": "CD4+ T cells; [7]", "result": "2.26 % CD4 and 9.02 % CD4"},
      {"measurement": "Ex Vivo Frequency (# per 10^6 CD4)", "setting": "RV-specific CD4+ T cells [1]; HLA allele 1*1501 tetramer", "result": "31 # per 10^6 CD4 and 5 # per 10^6 CD4 and 13 # per 10^6 CD4 and 71 # per 10^6 CD4"},
      {"measurement": "Validated", "setting": "RV-specific CD4+ T cells [1]; HLA allele 1*1501 tetramer, reliable ex vivo signal", "result": "Y"}
    ]},
    {"sequence": "TSKGWWWKLPDALKDMGIFG [VP2P10]", "values": [
      {"measurement": "In Vitro Frequency (% CD4)", "setting": "CD4+ T cells; [4]", "result": "3.93 % CD4 and 4.49 % CD4 and 0.38 % CD4"},
      {"measurement": "Ex Vivo Frequency (# per 10^6 CD4)", "setting": "RV-specific CD4+ T cells [1]; HLA allele DRB5 tetramer", "result": "60 # per 10^6 CD4 and 24 # per 10^6 CD4 and 136 # per 10^6 CD4"},
      {"measurement": "Validated", "setting": "RV-specific CD4+ T cells [1]; [11]", "result": "Y"}
    ]},
    {"sequence": "TSSNRFYTLDSKMWNSTSKG [VP2P8]", "values": [
      {"measurement": "In Vitro Frequency (% CD4)", "setting": "CD4+ T cells; [12]", "result": "0.77 % CD4 and 1.82 % CD4"},
      {"measurement": "In Vitro Frequency (% CD4)", "setting": "CD4+ T cells; [9]", "result": "0 % CD4 (2×) and 0.26 % CD4"},
      {"measurement": "Ex Vivo Frequency (# per 10^6 CD4)", "setting": "RV-specific CD4+ T cells [1]; HLA allele 1*0404 tetramer", "result": "2 # per 10^6 CD4"}
    ]},
    {"sequence": "TTRNDYAWQSGTNASVFWQH [VP1P20]", "values": [
      {"measurement": "In Vitro Frequency (% CD4)", "setting": "CD4+ T cells; [3]", "result": "18.7 % CD4 and 0 % CD4 (2×)"}
    ]},
    {"sequence": "VPYVNAVPMDSMVRHNNWSL [VP2P26]", "values": [
      {"measurement": "In Vitro Frequency (% CD4)", "setting": "CD4+ T cells; [6]", "result": "1.57 % CD4 and 0.84 % CD4"},
      {"measurement": "Ex Vivo Frequency (# per 10^6 CD4)", "setting": "RV-specific CD4+ T cells [1]; HLA allele 1*0701 tetramer", "result": "4 # per 10^6 CD4 and 16 # per 10^6 CD4 and 14 # per 10^6 CD4 and 5 # per 10^6 CD4"},
      {"measurement": "Validated", "setting": "RV-specific CD4+ T cells [1]; [8]", "result": "Y"}
    ]},
    {"sequence": "VVTNDMGTLCSRIVTSEQLH [VP1P27]", "values": [
      {"measurement": "In Vitro Frequency (% CD4)", "setting": "CD4+ T cells; [6]", "result": "0 % CD4 and 0.13 % CD4"}
    ]}
  ]
}
